In patent US20250129102A1, “CRYSTAL FORM OF PYRIMIDINE HETEROCYCLIC COMPOUND AND PREPARATION METHOD THEREFOR” (D3 Bio (Wuxi) Co., Ltd., priority 2021, published 2025):

How the values were obtained:
[1] = Pharmacokinetics by oral administration in beagle dogs; format: in vivo; conditions: male, dog, plasma, 24.5 mg/kg, 0.5% methylcellulose
Procedure: 680.397 mg of assay compound powder was accurately weighed, and 50 mL of 0.500 methylcellulose (400 viscosity) aqueous solution was added. The mixture was stirred for 10 minutes, and sonicated for 10 minutes. 50 mL of 0.5% o methylcellulose (400 viscosity) aqueous solution was added, and homogenized for 10 minutes using a homogenizer. 11 mL of 0.5% o methylcellulose (400 viscosity) aqueous solution was added. The mixture was sonicated for 5 minutes and stirred for 10 minutes. 358 μL of 0.5% o methylcellulose (400 viscosity) aqueous solution was added and stirred for 2 minutes. Male beagle dogs aged over six months were selected, and administered candidate compound solution orally. Whole blood was collected for a certain period of time, and prepared to obtain plasma. Drug concentration was analyzed by LC-MS/MS method, and pharmacokinetic parameters were calculated by Phoenix WinNonlin software (Pharsight, USA). The results of the assay are shown in Table 14: […]

[2] = Solid stability assay of crystal form A (XRPD); format: physicochemical
Description: The sample was spread into a thin layer. For the samples placed under conditions of high temperature and high humidity, the vial mouth was sealed with aluminum foil, and some small holes were punched in the aluminum foil to ensure that the samples were fully in contact with the ambient air. For the samples placed under condition of strong light, the vial mouth was sealed with aluminum foil, and some small holes were punched in the aluminum foil. Samples placed under different conditions were sampled and tested (XRPD) on day 5 and day 10, respectively. The assay results were compared with the initial assay results on day 0.
Each medicinal low-density polyethylene bag was tied tightly with a tie, and then was placed into a single-layer aluminum foil bag. The single-layer aluminum foil bag was then heat-sealed. Finally, the samples were stored in plastic buckets and stored in a chamber with constant temperature and humidity. The packaging used in the stability assay simulated the material storage packaging. The material was divided into 1.5 g/package as stability samples under red light. Each sample was packaged in the same way and labeled with a stability sample label. The samples placed under different conditions were sampled and tested (XRPD) in the 3rd and 6th months. The assay results were compared with the initial assay results on day 0.

[3] = Pharmacokinetics of crystal form A by oral administration in SD rats; format: in vivo; conditions: male, rat, plasma, 92.3 mg/kg, suspension in 0.5% methylcellulose
Procedure: Male SD rats aged 7 to 10 weeks were selected, and administered candidate compound solution orally. Whole blood was collected for a certain period of time, and prepared to obtain plasma. Drug concentration was analyzed by LC-MS/MS method, and pharmacokinetic parameters were calculated by Phoenix WinNonlin software (Pharsight, USA).

[4] = read-out: Area under the plasma concentration-time curve, AUC0-last
[5] = read-out: Peak concentration, Cmax

SMILES: C=C(F)C(=O)N1CCN(c2nc(OC[C@@]34CCCN3C[C@H](F)C4)nc3c2CO[C@H](c2c(F)c(N)cc(C)c2C(F)(F)F)C3)C[C@@H]1CC#N
- AUC(0-t) [1, 4]: 16.7 µM·h
- Cmax [1, 5]: 2440 nM
- Tmax ([1]; read-out: Time-to-peak, Tmax): 2.5 h
- Crystal form ([2]; 25 ± 2° C./60 ± 5% relative humidity, 3 months): Crystal form A
- Crystal form ([2]; 25 ± 2° C./60 ± 5% relative humidity, 6 months): Crystal form A
- Crystal form ([2]; 40 ± 2° C./75 ± 5% relative humidity, 3 months): Crystal form A
- Crystal form ([2]; 40 ± 2° C./75 ± 5% relative humidity, 6 months): Crystal form A
- Crystal form ([2]; High humidity (25° C./relative humidity 92.5%, unsealed), 5 days): Crystal form A
- Crystal form ([2]; High humidity (25° C./relative humidity 92.5%, unsealed), 10 days): Crystal form A
- Crystal form ([2]; High temperature (60° C., unsealed), 5 days): Crystal form A
- Crystal form ([2]; High temperature (60° C., unsealed), 10 days): Crystal form A
- Crystal form ([2]; Light control, 5 days): Crystal form A
- Crystal form ([2]; Light control, 10 days): Crystal form A
- solid stability ([2]; high temperature, high humidity, strong light, long-term and accelerated experiments): good stability
- Crystal form ([2]; initial, 0 day (XRPD)): Crystal form A
- AUC(0-t) [3, 4]: 11.5 µM·h
- Cmax [3, 5]: 1400 nM
- Tmax ([3]; read-out: Time-to-peak, Tmax): 5.33 h
